Data from patent US12667580B2, “Retinoic acid precursor and anticancer drug composition comprising same” (INDUSTRIAL COOPERATION FOUNDATION JEONBUK NATIONAL …, priority 2021, dated 2026).
Blank lines part the entries; values can stand above or below the molecule they belong to.

What was measured:
[1] = test system: calreticulin (CRT) in A549 cells; experiment: CRT level by flow cytometry; assay type: cell-based
Procedure: Next, since immunogenic apoptosis enhances immunogenicity and anticancer effects by releasing damage-associated molecular pattern (DAMP) substances during the cell dying process, an experiment was performed to confirm whether tRABA nanoparticles induce immunogenic cell death to improve immunogenicity. First, the expression levels of DAMPs such as calreticulin (CRT) and high mobility group box 1 (HMGB1) were confirmed as endoplasmic reticulum (ER) stress markers.

tumor model mice = experiment: Tumor growth inhibition in tumor model mice; assay type: in vivo, mouse; details: i.v. on Days 1, 4, 7, 10, 13; RA 3 mg/kg, HBA 1.5 mg/kg, tRABA 5 mg/kg
Procedure: Next, the anticancer effect was evaluated by administering a therapeutic drug in the tumor model mice when the tumor size reached 50 mm^3. A therapeutic drug was intravenously administered on Days 1, 4, 7, 10, and 13 to the tumor model mice.

GSH in A549 cells = experiment: Intracellular GSH levels; assay type: cell-based; parameters: dose or concentration left out as unconfirmed
Procedure: Therefore, an experiment was conducted to measure intracellular GSH levels in A549 cells treated with tRABA.

[2] = test system: HMGB1 released from A549 cells; experiment: HMGB-1 release; assay type: cell-based
Procedure: Next, since it is known that HMGB-1 is a nuclear protein that binds to DNA and is triggered by an apoptosis inducer and that in the late stage of apoptosis, cells are destroyed and HMGB-1 is released into the tumor microenvironment to induce dendritic cell maturation and antigen presentation, an experiment was performed to confirm the effect of tRABA nanoparticles on HMGB-1 release.

A549 cells = experiment: MTT cytotoxicity, A549; assay type: cell-based; details: 24 hours, RA (210 mM), HBA (220 mM)
Procedure: Next, to evaluate the cytotoxicity of tRABA, a 3-(4,5-dimethylthiazol-2-yl)-2,5-diphenyltetrazolium bromide (MTT)) analysis was performed. The cell survival rate was measured 24 hours after A549 cells were treated with RA, HBA, and tRABA, and the results are shown in FIG. 8C.

[3] = Reactivity of RABA in the presence of H2O2 (1H NMR after incubation); assay type: physicochemical
Procedure: To evaluate the reactivity of the prepared RABA in the presence of H2O2, ^1H NMR of the RABA was taken after incubation in a 5 mM H2O2 solution.
The peaks at 7.3 and 7.8 ppm corresponding to aromatic protons disappeared, and new peaks at 6.8 and 7.1 ppm appeared. The peaks corresponding to benzylic proton were shifted from 5.1 ppm to 5.0 ppm. On the other hand, there was no peak shift in the RABA incubated in water without H2O2.

[4] = Self-assembly of nanoparticles in water, particle size and SEM; assay type: physicochemical
Procedure: RABA dissolved in tetrahydrofuran (THF) was added to water while stirring. During dilution in water, strong light scattering occurred due to the Tyndall phenomenon. […] The mean hydrodynamic diameter was measured to be ˜120 nm.
It was confirmed that the nanoparticles existed in a spherical colloidal state. In addition, an experiment was performed to confirm self-assembly of Compound 2, which is produced during the preparation process of RA and RABA.

[5] = test system: SW620 multicellular spheroids; experiment: Tumor penetration in multicellular spheroids; assay type: cell-based; details: 6 hours
From the text: Next, SW620 multicellular spheroids were used to evaluate the tumor penetration of Nile Red-loaded tRABA nanoparticles. […] This means that tRABA penetrated much deeper into the spheroids than RABA. From this, it could be confirmed that tRABA has excellent tumor penetration.

Molecule: hydroxybenzyl alcohol [HBA]
level of CRT [1]: almost no effect
tumor growth inhibition (tumor model mice): negligible inhibitory effect on tumor growth
intracellular GSH levels (GSH in A549 cells): no effect on the GSH levels
level of HMGB-1 [2]: did not affect the level of HMGB-1

Molecule: CC1=C(/C=C/C(C)=C/C=C/C(C)=C/C(=O)O)C(C)(C)CCC1 [RA, Retinoic acid]
cell survival rate / cytotoxicity (MTT) (A549 cells): the cell survival rate decreased

stability in water (1H NMR peak shift) ([3]; incubated in water without H2O2): no peak shift
self-assembly into nanoparticles ([4]; THF solution added to water, SEM): the nanoparticles were being formed well
mean hydrodynamic diameter ([4]; nanoparticles in water): ~120 nm
Molecule: CC1=C(/C=C/C(C)=C/C=C/C(C)=C/C(=O)OCc2ccc(B(O)O)cc2)C(C)(C)CCC1 [RABA]
reactivity in the presence of H2O2 (1H NMR peak shift) ([3]; incubation in a 5 mM H2O2 solution): a shift of the peak due to the release of HBA was observed
spheroid penetration (fluorescence) [5]: weak fluorescence
